Laboratory results published in ChEMBL document CHEMBL1201862, “PubChem BioAssay data set” (2004).
Active and inactive are the calls of the source. How the calls were made is not given here.

Target: Tyrosine-protein kinase receptor UFO (Homo sapiens, UniProt P30530)
Assay type: functional

Chain of Tyrosine-protein kinase receptor UFO (P30530 whole entry): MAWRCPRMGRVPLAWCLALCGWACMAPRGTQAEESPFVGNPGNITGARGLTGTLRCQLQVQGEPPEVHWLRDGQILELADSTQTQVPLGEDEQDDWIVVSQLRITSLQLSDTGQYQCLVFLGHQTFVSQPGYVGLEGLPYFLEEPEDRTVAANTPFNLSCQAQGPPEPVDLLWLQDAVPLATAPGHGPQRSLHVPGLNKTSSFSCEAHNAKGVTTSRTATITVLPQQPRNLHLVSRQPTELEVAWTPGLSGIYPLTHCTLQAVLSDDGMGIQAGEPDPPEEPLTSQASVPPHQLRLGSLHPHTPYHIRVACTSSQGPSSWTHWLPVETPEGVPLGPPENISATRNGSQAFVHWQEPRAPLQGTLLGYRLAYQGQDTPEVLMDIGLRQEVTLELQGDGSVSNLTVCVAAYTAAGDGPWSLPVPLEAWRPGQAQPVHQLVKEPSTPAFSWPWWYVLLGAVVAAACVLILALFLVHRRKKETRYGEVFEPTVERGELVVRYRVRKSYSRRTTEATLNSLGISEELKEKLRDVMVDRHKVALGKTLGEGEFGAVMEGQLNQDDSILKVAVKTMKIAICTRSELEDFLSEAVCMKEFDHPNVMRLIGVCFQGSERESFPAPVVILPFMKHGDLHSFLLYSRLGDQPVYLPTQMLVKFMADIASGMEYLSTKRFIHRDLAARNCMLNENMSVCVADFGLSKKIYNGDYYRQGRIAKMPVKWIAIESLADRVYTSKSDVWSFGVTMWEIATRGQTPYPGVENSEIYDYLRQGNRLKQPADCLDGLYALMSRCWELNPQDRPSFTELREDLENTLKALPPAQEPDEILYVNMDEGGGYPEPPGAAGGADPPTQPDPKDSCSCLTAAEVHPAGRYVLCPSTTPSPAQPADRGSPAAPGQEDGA

SMILES: O=C1Nc2ccc3ncsc3c2C1=CNc1ccc(S(=O)(=O)Nc2ccccn2)cc1
- Ki: 20 nM (active)
